This note sets out measurements from PubChem BioAssay (NCI).

The structures appear in SMILES notation.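 Assay format: 96-well plates, 48-hour exposure. The concentration for 50% growth inhibition is given as GI50. TGI: concentration producing complete growth inhibition.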

Test systems include MDA-MB-435; LOX IMVI melanoma; DU-145 prostate; IGROV1 ovarian; ACHN renal; UO-31 renal; UACC-62 melanoma; HL-60(TB) leukemia; HCT-116 colon; MOLT-4 leukemia.
Experiment in all cases: NCI-60 cell line screen, 48 h

As for `Cn1ncc(C#N)c1-c1ccc2c(c1)CN([C@H](CN)Cc1cccc(F)c1)C2=O`, the GI50 is 7.56 µM in the assay on MDA-MB-435; 20.3 µM in the assay on LOX IMVI melanoma; 21.3 µM with DU-145 prostate; 0.0489 µM in the assay on IGROV1 ovarian; 13.6 µM in the assay with ACHN renal; 3.43 µM in the assay with UO-31 renal. The GI50 was 3.17 µM in the assay with UACC-62 melanoma, 22.1 µM in the assay with HL-60(TB) leukemia, 12.9 µM in the assay with HCT-116 colon and 0.413 µM in the assay on MOLT-4 leukemia. The TGI in the assay with MDA-MB-435 is greater than 67.7 µM; in the assay with LOX IMVI melanoma, greater than 100 µM; in the assay on DU-145 prostate, greater than 100 µM; with IGROV1 ovarian, 1.59 µM; in the assay on ACHN renal, greater than 100 µM; with UO-31 renal, 42.5 µM. The TGI worked out at 22.6 µM with UACC-62 melanoma, 47.8 µM in the assay with HL-60(TB) leukemia, 28.7 µM in the assay on HCT-116 colon and 27.4 µM in the assay with MOLT-4 leukemia.

Regarding `Oc1ccc2c(=S)cc(-c3ccc(Br)cc3)oc2c1O`, the GI50 was 2.98 µM in the assay with MDA-MB-435; 1.18 µM in the assay with LOX IMVI melanoma; 2.67 µM in the assay on DU-145 prostate; 2.56 µM with IGROV1 ovarian; 2.35 µM with ACHN renal; 1.02 µM in the assay with UO-31 renal. Besides, the GI50 was 2.09 µM in the assay on UACC-62 melanoma, 1.66 µM in the assay with HL-60(TB) leukemia, 2.22 µM in the assay on HCT-116 colon and 2.16 µM with MOLT-4 leukemia. The TGI was greater than 100 µM in the assay on MDA-MB-435; 3.87 µM with LOX IMVI melanoma; greater than 100 µM with DU-145 prostate; 9.96 µM in the assay with IGROV1 ovarian; 11.8 µM in the assay on ACHN renal; 6.66 µM with UO-31 renal. Further, the TGI in the assay on UACC-62 melanoma is 4.85 µM; with HL-60(TB) leukemia it was 6.24 µM; in the assay on HCT-116 colon it was 9.73 µM; with MOLT-4 leukemia, 6.77 µM.

As to `O=C(/C=C/c1ccccc1)c1cccc2ccccc12`, the GI50 was 2.64 µM with MDA-MB-435; 1.6 µM in the assay with LOX IMVI melanoma; 3.63 µM in the assay with DU-145 prostate; 3.4 µM in the assay on IGROV1 ovarian; 3.66 µM in the assay with ACHN renal; 2.68 µM in the assay on UO-31 renal. The GI50 in the assay on UACC-62 melanoma was 3.46 µM; with HL-60(TB) leukemia, 1.49 µM; with HCT-116 colon it was 1.96 µM; in the assay with MOLT-4 leukemia, 1.43 µM. Further, the TGI turned out to be 14.7 µM with MDA-MB-435; 4.69 µM in the assay on LOX IMVI melanoma; 13 µM in the assay on DU-145 prostate; 10.9 µM with IGROV1 ovarian; 14.3 µM with ACHN renal; 12.6 µM with UO-31 renal. In addition, the TGI in the assay on UACC-62 melanoma was 11.8 µM; in the assay with HL-60(TB) leukemia, 5.21 µM; with HCT-116 colon, 4.1 µM; in the assay with MOLT-4 leukemia it was 5.68 µM.

For the compound `COc1cc(OCc2ccccc2)c2c(CCC(=O)O)cc(=O)oc2c1` (tested in a mixture with another compound), the TGI with MDA-MB-435, with LOX IMVI melanoma, in the assay with DU-145 prostate, in the assay on IGROV1 ovarian, in the assay on ACHN renal and in the assay on UO-31 renal was greater than 100 µM each time. In addition, the TGI was greater than 100 µM in the assay on UACC-62 melanoma, 93.7 µM in the assay with HL-60(TB) leukemia, greater than 100 µM in the assay with HCT-116 colon and 90.4 µM in the assay with MOLT-4 leukemia.

Consider `CCCCC(=O)N(c1ccc(Nc2c3ccccc3nc3cc([N+](=O)[O-])ccc23)cc1)S(C)(=O)=O`, for which the GI50 is 18.2 µM in the assay with MDA-MB-435; 3.05 µM in the assay with LOX IMVI melanoma; 1.67 µM in the assay with DU-145 prostate; 6.86 µM in the assay on IGROV1 ovarian; 3.85 µM with ACHN renal; 3.61 µM in the assay on UO-31 renal. Further, the GI50 is 7.12 µM in the assay on UACC-62 melanoma, 12.9 µM in the assay on HL-60(TB) leukemia, 3.78 µM with HCT-116 colon and 3.53 µM in the assay with MOLT-4 leukemia. In addition, the TGI in the assay on MDA-MB-435 was greater than 93.1 µM; with LOX IMVI melanoma it was 17.4 µM; in the assay on DU-145 prostate it was 74 µM; with IGROV1 ovarian, greater than 45.8 µM; in the assay on ACHN renal, greater than 88.7 µM; in the assay on UO-31 renal it was 45.3 µM. Also, the TGI in the assay on UACC-62 melanoma was 26.1 µM; in the assay on HL-60(TB) leukemia it was greater than 69.7 µM; in the assay with HCT-116 colon it was 19.8 µM; with MOLT-4 leukemia it was 28.4 µM.

As for `COc1ccc(OC)c(Nc2nc3nonc3nc2Nc2cccc(Br)c2)c1`, the GI50 is 0.538 µM in the assay with MDA-MB-435; 1.93 µM with LOX IMVI melanoma; 3.4 µM in the assay on DU-145 prostate; 2.87 µM in the assay with IGROV1 ovarian; 0.927 µM with ACHN renal; 0.622 µM in the assay on UO-31 renal. Also, the GI50 was 0.301 µM in the assay on UACC-62 melanoma, 0.702 µM with HL-60(TB) leukemia, 0.53 µM with HCT-116 colon and 0.809 µM with MOLT-4 leukemia. Moreover, the TGI in the assay with MDA-MB-435 was greater than 100 µM; in the assay with LOX IMVI melanoma it was greater than 100 µM; with DU-145 prostate, greater than 100 µM; in the assay on IGROV1 ovarian it was 42.5 µM; in the assay on ACHN renal, 13.3 µM; in the assay on UO-31 renal, 53.7 µM. In addition, the TGI was 14.1 µM with UACC-62 melanoma, 5.9 µM in the assay with HL-60(TB) leukemia, greater than 100 µM in the assay with HCT-116 colon and 12.1 µM in the assay with MOLT-4 leukemia.

For `Brc1ccccc2cc(-c3ccccc3)nc1-2`, the TGI in the assay on MDA-MB-435 was greater than 61 µM; in the assay with LOX IMVI melanoma, 21.4 µM; in the assay on DU-145 prostate it was greater than 63.3 µM; with IGROV1 ovarian, 26.5 µM; in the assay with ACHN renal it was 20.6 µM; with UO-31 renal, 25.5 µM. Also, the TGI in the assay on UACC-62 melanoma is 23.7 µM; with HL-60(TB) leukemia it was 35.8 µM; in the assay on HCT-116 colon, 10.5 µM; in the assay with MOLT-4 leukemia it was greater than 92.3 µM.

As for `O=S1(=O)c2ccccc2N(c2ccccc2)c2nnnn21`, the TGI in the assay with MDA-MB-435 is greater than 100 µM; in the assay with LOX IMVI melanoma, 32.6 µM; in the assay with DU-145 prostate, greater than 100 µM; in the assay with IGROV1 ovarian, greater than 100 µM; in the assay on ACHN renal, greater than 100 µM; with UO-31 renal, greater than 100 µM. For the same compound, the TGI in the assay with UACC-62 melanoma was 37.1 µM; with HL-60(TB) leukemia, 33.6 µM; with HCT-116 colon it was 86.9 µM; in the assay with MOLT-4 leukemia, 55.3 µM.

As to `CC12OC(CC(O)C1O)n1c3ccccc3c3c4c(c5c6ccccc6n2c5c31)C(=O)N(CCN1CCOCC1)C4=O` (stereo not given), the GI50 in the assay on MDA-MB-435 was 1.46 µM; in the assay with LOX IMVI melanoma, 0.425 µM; with DU-145 prostate it was 0.949 µM; in the assay with IGROV1 ovarian it was 0.98 µM; in the assay with ACHN renal, 0.526 µM; in the assay on UO-31 renal, 1.04 µM. Moreover, the GI50 in the assay with UACC-62 melanoma was 0.568 µM; with HL-60(TB) leukemia, 0.989 µM; in the assay on HCT-116 colon, 0.625 µM; in the assay with MOLT-4 leukemia it was 0.23 µM. In addition, the TGI in the assay with MDA-MB-435 was found to be 7.56 µM; in the assay on LOX IMVI melanoma, 1.29 µM; in the assay on DU-145 prostate it was 6.1 µM; with IGROV1 ovarian, 8.65 µM; with ACHN renal, 1.69 µM; in the assay with UO-31 renal it was 5.77 µM. In addition, the TGI worked out at 1.47 µM in the assay on UACC-62 melanoma, 7.08 µM in the assay on HL-60(TB) leukemia, 5.51 µM with HCT-116 colon and 4.26 µM in the assay with MOLT-4 leukemia.
